# Assays:
# [1] = Cytotoxicity against human MCF7/ADR cells; assay type: functional; conditions: NCI/ADR-RES, read-out: ED50 (the source's name)
# [2] = Cytotoxicity against human MCF7/ADR cells assessed as ratio of drug concentration to drug ED100 at 1.0 ug/ml after 6 days by BCA assay; assay type: functional, NCI/ADR-RES
# [3] = Cytotoxicity against human MCF7/ADR cells assessed as ratio of drug concentration to drug ED100 at 0.8 ug/ml after 6 days by BCA assay; assay type: functional, NCI/ADR-RES
# [4] = Cytotoxicity against human MCF7/ADR cells assessed as ratio of drug concentration to drug ED100 at 0.6 ug/ml after 6 days by BCA assay; assay type: functional, NCI/ADR-RES
# [5] = Cytotoxicity against human MCF7/ADR cells assessed as ratio of drug concentration to drug ED100 at 0.3 ug/ml after 6 days by BCA assay; assay type: functional, NCI/ADR-RES
# [6] = Cytotoxicity against human MCF7/ADR cells assessed as ratio of drug concentration to drug ED100 at 0.15 ug/ml after 6 days by BCA assay; assay type: functional, NCI/ADR-RES
# [7] = tested on: MCF/ADR; experiment: Reversal of P-gp-mediated multidrug resistance in human MCF/ADR cells assessed as ratio of doxorubicin ED50 without drug to doxorubicin ED50 with drug at 1.0 ug/ml after 6 days by BCA assay; assay type: cell-based
# [8] = tested on: MCF/ADR; experiment: Reversal of P-gp-mediated multidrug resistance in human MCF/ADR cells assessed as ratio of doxorubicin ED50 without drug to doxorubicin ED50 with drug at 0.8 ug/ml after 6 days by BCA assay; assay type: cell-based
# [9] = tested on: MCF/ADR; experiment: Reversal of P-gp-mediated multidrug resistance in human MCF/ADR cells assessed as ratio of doxorubicin ED50 without drug to doxorubicin ED50 with drug at 0.6 ug/ml after 6 days by BCA assay; assay type: cell-based
# [10] = tested on: MCF/ADR; experiment: Reversal of P-gp-mediated multidrug resistance in human MCF/ADR cells assessed as ratio of doxorubicin ED50 without drug to doxorubicin ED50 with drug at 0.3 ug/ml after 6 days by BCA assay; assay type: cell-based
# [11] = tested on: MCF/ADR; experiment: Reversal of P-gp-mediated multidrug resistance in human MCF/ADR cells assessed as ratio of doxorubicin ED50 without drug to doxorubicin ED50 with drug at 1.15 ug/ml after 6 days by BCA assay; assay type: cell-based
# [12] = Cytotoxicity against human MCF7/ADR cells assessed as ratio of drug concentration to drug ED100 at 10 ug/ml after 6 days by BCA assay; assay type: functional, NCI/ADR-RES
# [13] = Cytotoxicity against human MCF7/ADR cells assessed as ratio of drug concentration to drug ED100 at 8 ug/ml after 6 days by BCA assay; assay type: functional, NCI/ADR-RES
# [14] = Cytotoxicity against human MCF7/ADR cells assessed as ratio of drug concentration to drug ED100 at 6 ug/ml after 6 days by BCA assay; assay type: functional, NCI/ADR-RES
# [15] = Cytotoxicity against human MCF7/ADR cells assessed as ratio of drug concentration to drug ED100 at 3 ug/ml after 6 days by BCA assay; assay type: functional, NCI/ADR-RES
# [16] = Cytotoxicity against human MCF7/ADR cells assessed as ratio of drug concentration to drug ED100 at 1.5 ug/ml after 6 days by BCA assay; assay type: functional, NCI/ADR-RES
SMILES,EC50 [1],Activity [2],Activity [3],Activity [4],Activity [5],Activity [6],Ratio ED50 [7],Ratio ED50 [8],Ratio ED50 [9],Ratio ED50 [10],Ratio ED50 [11],Activity [7],Activity [8],Activity [9],Activity [10],Activity [12],Activity [13],Activity [14],Activity [15],Activity [16]
COc1ccc2cc1Oc1ccc(cc1)C[C@H]1c3c(cc(OC)c4c3Oc3cc5c(cc3O4)CCN(C)[C@H]5C2)CCN1C [ISOTRILOBINE],2 µg/mL,0.2,0.16,0.12,0.06,0.03,70,57,32,10,5,,,,,,,,,
COc1ccc2cc1Oc1ccc(cc1)C[C@@H]1NCCc3cc(OC)c4c(c31)Oc1cc3c(cc1O4)CCN(C)[C@H]3C2 [TRILOBINE],1 µg/mL,0.17,0.13,0.1,0.05,,,,,,,2,2,1.5,1,,,,,
COc1ccc(CCN(C)CCCC(C#N)(c2ccc(OC)c(OC)c2)C(C)C)cc1OC (stereo not given) [VERAPAMIL],,,,,,,,,,,,,,,,0.19,0.15,0.12,0.06,0.03
